Laboratory results published in PubChem BioAssay (NCI).
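Compound exposure: 48 hours, 5 concentrations, 96-well plates. Abbreviation: GI50, concentration required for 50% inhibition of growth. TGI is the concentration that stops growth completely.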

The molecules below were run on SK-OV-3 ovarian (assay: inhibition of tumour cell growth, NCI panel, 48 h).
`O=c1[nH]c(-c2ccccc2)nc2cc(Cl)ccc12` showed a TGI of over 100 µM.
Work on `Cc1ccc(S(=O)(=O)N2CCC2c2ccccc2)cc1` (configuration not stated) yielded a TGI of over 100 µM.
`CCCOc1nc(N)c2cnn(C3CCCCO3)c2n1` (configuration not stated) gave a TGI of over 100 µM.
For `COc1ccc(/C=C/COC(C)=O)cc1OC`, the TGI was over 100 µM.
In the case of `CCOC(=O)n1cc(C2=C(c3ccc(OC)c(OC)c3)COC2=O)c2ccccc21`, the GI50 is reported as 0.817 µM and the TGI is reported as over 100 µM.
Work on `CC(=O)OC1(C)N=NC2(CCCCC2)O1` (configuration not stated) yielded a TGI of over 100 µM.
With `[O-][Cl+3]([O-])([O-])[O-].[O]=[Ru]=[O].c1ccc(-c2ccccn2)nc1.c1ccc(-c2ccccn2)nc1` the GI50 was over 100 µM and the TGI was over 100 µM.
For `CN(C)c1ccc(/C=N/NC(=S)Nc2ccccc2)cc1`, the TGI was over 100 µM.
Work on `O=C1C(C(Nc2ccccc2)c2ccccc2)=C([O-])c2ccccc21.O=C1C(C(Nc2ccccc2)c2ccccc2)=C([O-])c2ccccc21.[Cu+2]` (configuration not stated) yielded a GI50 of 8.38 µM and a TGI of 63 µM.
`CN(C)CC1CCC/C1=N/OC(=O)c1ccccc1` (configuration not stated) was tested, and the TGI was over 100 µM.
`Fc1cc(-c2nnc3n2N=C(c2ccc(Cl)cc2)CS3)c(Cl)cc1Cl` was tested, and the GI50 was 22.5 µM and the TGI was 51.5 µM.
For `O=C(NC1C=CCC2C(=O)N(c3ccccc3)C(=O)C12)OCc1ccccc1` (configuration not stated), the TGI was over 100 µM.
With `Cc1[cH-]c(=O)n(-c2ccccc2)n1.[Au+].[Au].c1ccc([PH+](c2ccccc2)c2ccccc2)cc1.c1ccc([PH+](c2ccccc2)c2ccccc2)cc1` the GI50 was 40.4 µM and the TGI was over 100 µM.
Work on `CC(=O)OCc1ccc2c(c1)C(O)NC(=O)O2` (configuration not stated) yielded a TGI of over 100 µM.
For `CC1(C)CC(c2c[nH]c3ccccc23)=CC2=Nc3ccccc3C21O` (configuration not stated), the TGI was over 100 µM.
`CN1C(=O)C(=O)N2c3ccc(Cl)cc3C3(c4ccccc4)N=CC12O3` (configuration not stated) showed a TGI of 21.7 µM.
`COc1ccc(CN2C(=O)C(Cl)=C(Nc3cccc(C(F)(F)F)c3)C2=O)cc1` was tested, and the GI50 was 8.67 µM and the TGI was 62.2 µM.
Work on `NCCNCCNCCN` yielded a GI50 of over 100 µM and a TGI of over 100 µM.
Work on `COc1ccc(C(c2cc(OC)c(OC)c(OC)c2)n2cncn2)cc1O` (configuration not stated) yielded a GI50 of 0.402 µM and a TGI of over 100 µM.
Work on `N#CCCC[Si]12OCCN(CCO1)CCO2` yielded a TGI of over 100 µM.
`O=C(/C=C/c1c(O)ccc2ccccc12)c1ccc([N+](=O)[O-])cc1` gave a TGI of over 100 µM.

What follows are molecules tested on T-47D breast (assay: inhibition of tumour cell growth, NCI panel, 48 h).
`COc1cc(-c2nc3sccn3c2-c2ccnc(NCCNS(=O)(=O)c3ccc(F)cc3)n2)ccc1F` gave a GI50 of 0.634 µM and a TGI of 35.9 µM.
Molecule `Cc1cc(Nc2ccc(C)c(Cl)c2)n2nc(C(F)(F)F)nc2n1` has a GI50 of 17.5 µM and a TGI of 76 µM.
Molecule `COc1ccc(Cn2c(Br)c3c(c2Br)-c2nc(N)sc2CC3)cc1` has a GI50 of 3.03 µM and a TGI of 12.8 µM.
Molecule `C#Cc1cccc(Nc2nc3cc([N+](=O)[O-])ccc3nc2Nc2ccc(O)cc2)c1` has a GI50 of 1.93 µM and a TGI of 6.24 µM.
For `CN(C)CC(O)c1ccc(/C=C/c2ccc(Cl)cc2)cc1` (configuration not stated), the GI50 was 3.76 µM and the TGI was 16.6 µM.
Molecule `Cc1nnc2ccnn2c1C` has a GI50 of over 100 µM and a TGI of over 100 µM.
`C=C1C[C@H](O)[C@H](Br)C(C)(C)[C@@]12CCC(C)=C(Cl)C2` gave a GI50 of 0.15 µM and a TGI of 11.3 µM.
With `CC(=O)OC1(C)N=NC2(CCCCC2)O1` (configuration not stated) the TGI was over 100 µM.
Molecule `CN(C)c1ccc(/C=N/NC(=S)Nc2ccccc2)cc1` has a TGI of over 100 µM.
`Fc1cc(-c2nnc3n2N=C(c2ccc(Cl)cc2)CS3)c(Cl)cc1Cl` showed a GI50 of 2.76 µM and a TGI of 20 µM.
For `CCC(C)SC1SCC2C(=O)N(C)C3(CC3C)C(=O)OCC(NC(=O)c3nc4ccccc4cc3O)C(=O)NC(C)C(=O)N(C)C1C(=O)N(C)C1(CC1C)C(=O)OCC(NC(=O)c1nc3ccccc3cc1O)C(=O)NC(C)C(=O)N2C` (configuration not stated), the TGI was 0.00514 µM.
With `CC(=O)OCc1ccc2c(c1)C(O)NC(=O)O2` (configuration not stated) the TGI was over 100 µM.
`COc1ccc(CN2C(=O)C(Cl)=C(Nc3cccc(C(F)(F)F)c3)C2=O)cc1` gave a GI50 of 3.88 µM and a TGI of 21.5 µM.
`NCCNCCNCCN` showed a GI50 of over 100 µM and a TGI of over 100 µM.

These molecules were tested on UACC-257 melanoma (assay: inhibition of tumour cell growth, NCI panel, 48 h).
Molecule `C[C@@]1(O)CC[C@]2(C)C3CCCC3[C@H]12` (some centres not stated) has a TGI of over 100 µM.
`COc1cc(-c2nc3sccn3c2-c2ccnc(NCCNS(=O)(=O)c3ccc(F)cc3)n2)ccc1F` gave a GI50 of 3.88 µM and a TGI of over 100 µM.
`COc1ccc(Cn2c(Br)c3c(c2Br)-c2nc(N)sc2CC3)cc1` was tested, and the GI50 was 8.48 µM and the TGI was 22.3 µM.
Molecule `CC(=O)[O-].CC(=O)[O-].O=C(N/N=C/c1cc(Cl)cc(Cl)c1O)c1ccncc1.[Cu+2]` has a TGI of over 100 µM.
For `C#Cc1cccc(Nc2nc3cc([N+](=O)[O-])ccc3nc2Nc2ccc(O)cc2)c1`, the GI50 was 2.09 µM and the TGI was 4.34 µM.
For `O=C(Nc1nc(=S)[nH][nH]1)C(=O)C(C(=O)c1ccc2ccccc2c1)C1OC(=O)c2ccccc21` (configuration not stated), the TGI was 76.5 µM.
`CN(C)CC(O)c1ccc(/C=C/c2ccc(Cl)cc2)cc1` (configuration not stated) showed a GI50 of 1.63 µM and a TGI of 3.15 µM.
Work on `CCOC(=O)C1=C(C)N(NC(=O)Nc2ccccc2)C2(N)N(NC(=O)Nc3ccccc3)C(C)=C(C(=O)OCC)C12C(=O)OCC` (configuration not stated) yielded a TGI of over 100 µM.
Work on `Cn1cc(-c2cc3c(N4CCN(c5ncc([C@@](C)(N)c6ccc(F)cc6)cn5)CC4)ncnn3c2)cn1` yielded a GI50 of 5 µM and a TGI of over 100 µM.
In the case of `O=C(O)CSc1n[nH]c(-c2ccccc2O)n1`, the TGI is reported as over 100 µM.
With `Cc1nc(-c2nc(C)c(C(=O)NNC(=O)C[n+]3ccccc3)s2)sc1C(=O)NNC(=O)C[n+]1ccccc1` the TGI was over 100 µM.
`CN(C)C=Nc1nc(=O)n(C2CCC(CO)O2)cc1F` (configuration not stated) was tested, and the TGI was over 100 µM.
In the case of `O=c1[nH]c(-c2ccccc2)nc2cc(Cl)ccc12`, the TGI is reported as over 100 µM.
`Cc1ccc(S(=O)(=O)N2CCC2c2ccccc2)cc1` (configuration not stated) was tested, and the TGI was over 100 µM.
Molecule `CCCOc1nc(N)c2cnn(C3CCCCO3)c2n1` (configuration not stated) has a TGI of over 100 µM.
For `C/C(CN1C(=O)c2ccccc2C1=O)=N\NS(=O)(=O)c1ccc(Cl)cc1`, the TGI was over 100 µM.
Molecule `COc1ccc(/C=C/COC(C)=O)cc1OC` has a TGI of over 100 µM.
For `CCOC(=O)n1cc(C2=C(c3ccc(OC)c(OC)c3)COC2=O)c2ccccc21`, the GI50 was 16.1 µM and the TGI was over 100 µM.
Work on `CC(=O)OC1(C)N=NC2(CCCCC2)O1` (configuration not stated) yielded a TGI of over 100 µM.
`[O-][Cl+3]([O-])([O-])[O-].[O]=[Ru]=[O].c1ccc(-c2ccccn2)nc1.c1ccc(-c2ccccn2)nc1` gave a GI50 of over 100 µM and a TGI of over 100 µM.
`CN(C)c1ccc(/C=N/NC(=S)Nc2ccccc2)cc1` showed a TGI of over 100 µM.
Molecule `O=C1C(C(Nc2ccccc2)c2ccccc2)=C([O-])c2ccccc21.O=C1C(C(Nc2ccccc2)c2ccccc2)=C([O-])c2ccccc21.[Cu+2]` (configuration not stated) has a GI50 of over 100 µM and a TGI of over 100 µM.
In the case of `CN(C)CC1CCC/C1=N/OC(=O)c1ccccc1` (configuration not stated), the TGI is reported as over 100 µM.
For `CCOC(=O)C1Sc2ccccc2N=C1C` (configuration not stated), the TGI was over 100 µM.
Work on `Fc1cc(-c2nnc3n2N=C(c2ccc(Cl)cc2)CS3)c(Cl)cc1Cl` yielded a GI50 of 14.7 µM and a TGI of 28.8 µM.
`O=C(NC1C=CCC2C(=O)N(c3ccccc3)C(=O)C12)OCc1ccccc1` (configuration not stated) gave a TGI of over 100 µM.
Work on `CCC(C)SC1SCC2C(=O)N(C)C3(CC3C)C(=O)OCC(NC(=O)c3nc4ccccc4cc3O)C(=O)NC(C)C(=O)N(C)C1C(=O)N(C)C1(CC1C)C(=O)OCC(NC(=O)c1nc3ccccc3cc1O)C(=O)NC(C)C(=O)N2C` (configuration not stated) yielded a TGI of 0.000219 µM.
With `Cc1[cH-]c(=O)n(-c2ccccc2)n1.[Au+].[Au].c1ccc([PH+](c2ccccc2)c2ccccc2)cc1.c1ccc([PH+](c2ccccc2)c2ccccc2)cc1` the GI50 was 25.4 µM and the TGI was 91.3 µM.
`CC(=O)OCc1ccc2c(c1)C(O)NC(=O)O2` (configuration not stated) was tested, and the TGI was over 100 µM.
For `CC1(C)CC(c2c[nH]c3ccccc23)=CC2=Nc3ccccc3C21O` (configuration not stated), the TGI was over 100 µM.
`CN1C(=O)C(=O)N2c3ccc(Cl)cc3C3(c4ccccc4)N=CC12O3` (configuration not stated) was tested, and the TGI was 19 µM.
`COc1ccc(CN2C(=O)C(Cl)=C(Nc3cccc(C(F)(F)F)c3)C2=O)cc1` showed a GI50 of 11.1 µM and a TGI of 27.6 µM.
Work on `NCCNCCNCCN` yielded a GI50 of over 100 µM and a TGI of over 100 µM.
`COc1ccc(C(c2cc(OC)c(OC)c(OC)c2)n2cncn2)cc1O` (configuration not stated) was tested, and the GI50 was over 100 µM and the TGI was over 100 µM.
With `N#CCCC[Si]12OCCN(CCO1)CCO2` the TGI was over 100 µM.
`O=C(/C=C/c1c(O)ccc2ccccc12)c1ccc([N+](=O)[O-])cc1` was tested, and the TGI was 74 µM.
